Data reported in ChEMBL document CHEMBL4673331 (J Med Chem, 2020).
Converted amounts (≈) assume the structure as drawn.

Experiments:
[1] = target: T1, Mucosa-associated lymphoid tissue lymphoma translocation protein 1 (Homo sapiens, UniProt Q9UDY8); experiment: Allosteric inhibition of MALT1 in human OCI-LY3 cells assessed as reduction in BCL10 cleavage measured after 24 hrs by ELISA; assay type: cell-based, OCILY3
T1 sequence (Q9UDY8 whole entry): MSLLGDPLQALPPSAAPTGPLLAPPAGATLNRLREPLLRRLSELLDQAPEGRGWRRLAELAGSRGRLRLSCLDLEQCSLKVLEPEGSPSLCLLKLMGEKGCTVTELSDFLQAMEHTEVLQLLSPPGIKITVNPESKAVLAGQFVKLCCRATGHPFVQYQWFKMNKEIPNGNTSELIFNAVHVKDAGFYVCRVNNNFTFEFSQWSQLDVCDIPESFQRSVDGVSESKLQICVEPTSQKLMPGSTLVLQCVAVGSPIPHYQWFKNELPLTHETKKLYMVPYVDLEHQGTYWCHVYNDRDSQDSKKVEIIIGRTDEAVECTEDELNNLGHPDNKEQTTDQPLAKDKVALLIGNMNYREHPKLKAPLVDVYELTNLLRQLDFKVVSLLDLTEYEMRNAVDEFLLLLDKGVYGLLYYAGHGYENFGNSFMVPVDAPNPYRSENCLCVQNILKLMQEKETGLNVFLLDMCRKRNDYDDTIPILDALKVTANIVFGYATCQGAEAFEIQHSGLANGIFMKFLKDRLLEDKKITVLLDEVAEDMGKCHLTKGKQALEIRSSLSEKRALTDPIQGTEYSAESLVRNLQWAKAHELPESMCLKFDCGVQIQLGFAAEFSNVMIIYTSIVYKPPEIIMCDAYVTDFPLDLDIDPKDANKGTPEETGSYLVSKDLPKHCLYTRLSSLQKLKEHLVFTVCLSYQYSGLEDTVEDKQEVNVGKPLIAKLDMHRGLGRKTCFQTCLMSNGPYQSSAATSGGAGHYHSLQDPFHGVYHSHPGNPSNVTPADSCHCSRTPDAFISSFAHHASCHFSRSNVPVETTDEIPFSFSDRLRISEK

[2] = Solubility of the compound at pH 6.8; assay type: physicochemical; conditions: buffer
[3] = target: T1, Mucosa-associated lymphoid tissue lymphoma translocation protein 1; experiment: Allosteric inhibition of human wild-type […] MALT1 (329 to 824 residues) protease activity using Ac-Leu-Arg-Ser-Arg Rh110-dPro as substrate preincubated for 60 mins followed by substrate addition and measured after 60 mins by fluorescence assay
[4] = Solubility of compound at pH 6.8; assay type: physicochemical; conditions: buffer
[5] = Solubility of compound at pH 6.8 assessed as extrapolated log of solubility; assay type: physicochemical; conditions: buffer
[6] = target: Voltage-gated inwardly rectifying potassium channel KCNH2 (Homo sapiens, UniProt Q12809); experiment: Inhibition of human ERG
Chain of Voltage-gated inwardly rectifying potassium channel KCNH2 (Q12809 whole entry): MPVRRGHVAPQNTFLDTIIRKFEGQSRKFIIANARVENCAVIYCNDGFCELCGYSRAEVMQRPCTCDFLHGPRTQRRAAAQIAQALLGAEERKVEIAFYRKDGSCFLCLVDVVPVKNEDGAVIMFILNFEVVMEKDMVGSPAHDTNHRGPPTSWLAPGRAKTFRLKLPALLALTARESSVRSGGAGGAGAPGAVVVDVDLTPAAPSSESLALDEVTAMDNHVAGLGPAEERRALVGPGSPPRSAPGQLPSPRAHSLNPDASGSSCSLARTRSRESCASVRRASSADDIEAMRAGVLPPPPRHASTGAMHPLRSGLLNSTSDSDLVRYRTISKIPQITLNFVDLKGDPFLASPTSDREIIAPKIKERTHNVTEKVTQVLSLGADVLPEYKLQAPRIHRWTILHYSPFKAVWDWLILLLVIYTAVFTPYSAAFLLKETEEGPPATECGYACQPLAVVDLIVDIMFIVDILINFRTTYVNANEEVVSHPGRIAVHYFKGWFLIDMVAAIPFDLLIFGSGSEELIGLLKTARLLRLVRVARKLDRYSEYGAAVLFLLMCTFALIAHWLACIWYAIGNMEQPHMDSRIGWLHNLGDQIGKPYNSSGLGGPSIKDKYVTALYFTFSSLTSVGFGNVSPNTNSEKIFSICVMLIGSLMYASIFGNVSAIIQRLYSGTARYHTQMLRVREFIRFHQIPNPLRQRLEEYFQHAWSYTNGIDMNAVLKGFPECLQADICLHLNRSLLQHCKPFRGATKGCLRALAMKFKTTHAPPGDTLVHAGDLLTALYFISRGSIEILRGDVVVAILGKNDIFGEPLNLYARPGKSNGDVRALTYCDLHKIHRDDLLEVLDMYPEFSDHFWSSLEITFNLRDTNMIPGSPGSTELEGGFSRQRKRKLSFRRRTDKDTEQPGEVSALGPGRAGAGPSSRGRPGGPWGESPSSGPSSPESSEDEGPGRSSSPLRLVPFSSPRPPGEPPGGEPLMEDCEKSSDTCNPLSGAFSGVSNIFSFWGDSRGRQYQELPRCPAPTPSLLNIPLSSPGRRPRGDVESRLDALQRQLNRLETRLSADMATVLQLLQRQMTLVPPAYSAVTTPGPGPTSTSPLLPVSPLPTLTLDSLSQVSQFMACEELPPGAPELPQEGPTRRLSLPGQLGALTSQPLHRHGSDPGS

[7] = Tmax in Sprague-Dawley rat at 1.25 mg/kg, po administered as solution; assay type: ADME, organism-based; conditions: in vivo
[8] = Tmax in Sprague-Dawley rat at 3 mg/kg, po administered as MCT suspension; assay type: ADME, organism-based; conditions: in vivo
[9] = Protein binding in rat plasma; assay type: ADME, cell-free; conditions: read-out: PPB (converted)
[10] = Dose normalized Cmax in Sprague-Dawley rat at 3 mg/kg, po administered as MCT suspension; assay type: ADME, organism-based; conditions: in vivo
[11] = Thermodynamic solubility of the compound at pH 6.8; assay type: physicochemical; conditions: buffer, read-out: Therm_solubility
[12] = Clearance in male Sprague-Dawley rat at 1 mg/kg, iv administered as bolus dose; assay type: ADME, organism-based; conditions: in vivo
[13] = Terminal half-life in Sprague-Dawley rat at 1 mg/kg, iv administered as bolus dose; assay type: ADME, organism-based; conditions: in vivo, read-out: beta t1/2 (converted)
[14] = Oral bioavailability in Sprague-Dawley rat at 3 mg/kg administered as MCT suspension; assay type: ADME, organism-based; conditions: in vivo
[15] = Volume of distribution at steady state in Sprague-Dawley rat at 1 mg/kg, iv administered as bolus dose; assay type: ADME, organism-based; conditions: in vivo, read-out: Vdss
[16] = Dose normalized Cmax in Sprague-Dawley rat at 1.25 mg/kg, po administered as solution; assay type: ADME, organism-based; conditions: in vivo
[17] = Permeability of compound by PAMPA assay; assay type: ADME
[18] = Lipophilicity, log D of the compound at pH 7.4; assay type: physicochemical; conditions: buffer
[19] = Oral bioavailability in Sprague-Dawley rat at 1.25 mg/kg administered as solution; assay type: ADME, organism-based; conditions: in vivo
[20] = Dose normalized AUC in Sprague-Dawley rat at 1 mg/kg, iv administered as bolus dose; assay type: ADME, organism-based; conditions: in vivo
[21] = Dose normalized AUC in Sprague-Dawley rat at 1.25 mg/kg, po administered as solution; assay type: ADME, organism-based; conditions: in vivo
[22] = Dose normalized AUC in Sprague-Dawley rat at 3 mg/kg, po administered as MCT suspension; assay type: ADME, organism-based; conditions: in vivo
[23] = Intrinsic clearance in rat liver microsomes; assay type: ADME, Microsome; conditions: read-out: CLH

| IC50 [1] [nM] | solubility [2] [µM] | IC50 [3] [nM] | SMILES | further results |
| --- | --- | --- | --- | --- |
| 280 | 8 (≈ 3.76 µg/mL) | 6 | CC1(C)COCCN1c1c(NC(=O)Nc2ccnc(C(F)(F)F)c2)cnc2cc(Cl)nn12 | – |
| – | – | 135 | COc1ccc(NC(=O)N[C@H]2COc3ccccc3C2)cc1Cl | – |
| 330 | 81 (≈ 37.8 µg/mL) | 6 | COc1ncc(NC(=O)Nc2cnc3cc(Cl)nn3c2N2[C@@H](C)COC[C@@H]2C)cc1Cl | – |
| 1920 | – | 150 | COc1ccc(NC(=O)NC2COc3ccc(C#N)cc3C2)cc1Cl (racemic) | – |
| 120 | < 4 | 6 | COc1ccc(NC(=O)Nc2cnc3ccc(C#N)cc3c2N2CCOC[C@@H]2C)cc1Cl | – |
| 80 | < 4 | 2 | COc1ncc(NC(=O)Nc2cnc3cc(Cl)nn3c2N2CCOCC2(C)C)cc1Cl | – |
| 670 | 27 (≈ 12.6 µg/mL) | 8 | COc1ccc(NC(=O)Nc2cnc3ccc(C#N)cc3c2N(C)C2CCOCC2)cc1Cl | log1/S [4]: 7.1; log1/S0 [4]: 7.1; log1/S [5]: 7.1 |
| – | – | > 100000 | COc1ccc(N(C)C(=O)NC2COc3ccc(Br)cc3C2)cc1Cl (stereo not given) | – |
| 1250 | – | 57 | COc1ccc(NC(=O)NC2COc3ccc(F)cc3C2)cc1Cl (racemic) | – |
| 1960 | – | 26 | O=C(Nc1ccc(-n2cncn2)c(Cl)c1)N[C@H]1COc2ccc(Br)cc2C1 | – |
| 3540 | – | 31 | COc1ncc(NC(=O)NC2COc3ccc(Br)cc3C2)cc1Cl (stereo not given) | – |
| – | – | > 100000 | COc1ccc(NC(=O)NC2CCc3ccccc3C2)cc1Cl (racemic) | – |
| 190 | < 4 | 2 | COc1ncc(NC(=O)Nc2cnc3ccc(C#N)cc3c2N(C)C2CCOCC2)cc1Cl | – |
| 2300 | – | 245 | COc1ccc(NC(=O)NC2COc3ccccc3C2)cc1Cl (racemic) | – |
| – | – | > 100000 | COc1ccc(NC(=O)N[C@@H]2COc3ccccc3C2)cc1Cl | – |
| – | 61 (≈ 28.9 µg/mL) | 70 | COc1ncc(NC(=O)Nc2cnc3ccc(F)cc3c2N(C)C2CCCN(C)C2)cc1Cl (stereo not given) | IC50 [6]: 9000 nM |
| 510 | < 4 | 29 | COc1ccc(NC(=O)Nc2cnc3ccc(Br)cc3c2Cl)cc1Cl | – |
| – | – | > 100000 | COc1ccc(NC(=O)N(C)C2COc3ccc(Br)cc3C2)cc1Cl (stereo not given) | – |
| – | 60 (≈ 31.7 µg/mL) | 70 | C[C@H]1COCCN1c1c(NC(=O)Nc2cnc(OC3CCN(C)CC3)c(Cl)c2)cnc2ccc(F)cc12 | – |
| 37 | < 4 | 5 | COc1ncc(NC(=O)Nc2cnc3ccc(C#N)cc3c2N2CCOC[C@@H]2C)cc1Cl | Tmax [7]: 3 h; Tmax [8]: 8 h; fraction unbound [9]: 0.025; Cmax/dose [10]: 11 nM; solubility thermodynamic [11]: 0.2 µg/mL (≈ 0.442 µM); clearance [12]: 31 mL/min/kg; half-life [13]: 2.1 h; bioavailability [14]: 8%; Vd [15]: 4.8 L/kg; Cmax/dose [16]: 71 nM; log(permeability) [17]: -4.9; logD [18]: 3.8; bioavailability [19]: 42%; AUC/dose [20]: 1240 nM·h; AUC/dose [21]: 520 nM·h; AUC/dose [22]: 103 nM·h; microsomal CLint [23]: 3.4 µL/min/mg |
| – | – | 50 | COc1ccc(NC(=O)NC2COc3ccc(Br)cc3C2)cc1Cl (racemic) | – |
| – | – | 1000 | COc1ccc(NC(=O)CC2COc3ccccc3C2)cc1Cl (stereo not given) | – |
| – | – | > 100000 | COc1ccc(CC(=O)NC2COc3ccccc3C2)cc1Cl (stereo not given) | – |
| 4270 | – | 145 | COc1ccc(NC(=O)NC2CSc3ccc(F)cc3C2)cc1Cl (racemic) | – |
| 4820 | < 4 | 242 | COc1ccc(NC(=O)Nc2cnc3ccc(Br)cc3c2)cc1Cl | – |
| 740 | 155 (≈ 77 µg/mL) | 17 | COc1ncc(NC(=O)Nc2cnc3cc(Br)nn3c2N2CCOC[C@@H]2C)cc1Cl | – |
